[ ]: non-standard residue; d: D form. Aib = CC(C)(N)C(=O)O
Columns and labels:
primary human T-cells = assay: Cytokine secretion on protein level in activated primary human T-cells (13-plex FACS / Luminex, supernatant); type: cell-based; conditions: 10^−9M
Method in brief: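 PMA/Ionomycin- or IFN-γ-activated cells (48 h) treated with tripeptides; supernatant 13-plex FACS at 48 h and 72 h post-stimulation. Luminex run: PMA/Ionomycin plus compound at 10^−7, 10^−9, 10^−11 M; IFN-γ, IL-17, IL-10 for T cells, IFN-γ for HaCaT.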

[1] = test system: human keratinocyte cell line (HaCaT); assay: Cytokine secretion on protein level in activated human keratinocyte cell line HaCaT (13-plex FACS / Luminex, supernatant); type: cell-based; conditions: for IL-1 cytokine concentration / IL-2 cytokine concentration / IL-4 cytokine concentration / IL-5 cytokine concentration / IL-6 cytokine concentration / IL-9 cytokine concentration / IL-10 cytokine concentration / IL-13 cytokine concentration / IL-17 cytokine concentration / TNF-α cytokine concentration / IL-12p70 cytokine concentration / IL-22 cytokine concentration / IFN-γ cytokine concentration: 10^−9M; for IL-12p70 cytokine concentration / IL-22 cytokine concentration: excluded from the final assessment
Method in brief: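 Stimulus: PMA/Ionomycin or IFN-γ, 48 h; cells: HaCaT or human peripheral-blood T-cells; tripeptide treatment; readout: supernatant cytokines via 13-plex FACS or Luminex, 48–72 h post-stimulation.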

primary murine T-cells = assay: Cytokine secretion on protein level in activated primary murine T-cells (13-plex FACS / Luminex, supernatant); type: cell-based, C57BL/6 mice; conditions: 10^−9M
Method in brief: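 T-cells from secondary lymphatic organs of naïve C57BL/6 mice, stimulated with PMA/Ionomycin or IFN-γ; supernatant cytokines measured by 13-plex FACS 48 h and 72 h after stimulation. In another run, PMA/Ionomycin-stimulated cells received compounds at 10^−7, 10^−9 and 10^−11 M, with IFN-γ, IL-17 and IL-10 measured by Luminex.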

[2] = primary human T-cells stimulated with IFN-γ
[3] = primary human T-cells stimulated with PBS
[4] = primary human T-cells stimulated with PMA/Ionomycin
[5] = HaCaT stimulated with PMA/Ionomycin
[6] = primary murine T-cells stimulated with IFN-γ
[7] = primary murine T-cells stimulated with PBS
[8] = primary murine T-cells stimulated with PMA/Ionomycin
[9] = primary murine T-cells stimulated with PMA/Ionomycin, 1:10 dilution of the supernatants

H-Lys-[dP]-[Aib]-OH [Example 1] was tested, and the IL-1 cytokine concentration (primary human T-cells; [2]) was 296.42 pg/mL, the IL-2 cytokine concentration (primary human T-cells; [2]) was 515.89 pg/mL and the IL-4 cytokine concentration (primary human T-cells; [2]) was 180.24 pg/mL. For the same substance, the IL-5 cytokine concentration (primary human T-cells; [2]) was 112.65 pg/mL, the IL-6 cytokine concentration (primary human T-cells; [2]) was 131.33 pg/mL and the IL-9 cytokine concentration (primary human T-cells; [2]) was 111.14 pg/mL. The IL-10 cytokine concentration (primary human T-cells; [2]) was 164.32 pg/mL, the IL-12p70 cytokine concentration (primary human T-cells; [2]) was 945.16 pg/mL and the IL-13 cytokine concentration (primary human T-cells; [2]) was 82.57 pg/mL. For the same substance, the IL-17 cytokine concentration (primary human T-cells; [2]) was 234.65 pg/mL, the IL-22 cytokine concentration (primary human T-cells; [2]) was 21389.5 pg/mL and the TNF-α cytokine concentration (primary human T-cells; [2]) was 230.57 pg/mL. The IFN-γ cytokine concentration (primary human T-cells; [3]) was 634.2 pg/mL, the IL-1 cytokine concentration (primary human T-cells; [3]) was 398.01 pg/mL and the IL-2 cytokine concentration (primary human T-cells; [3]) was 545.22 pg/mL. For the same substance, the IL-4 cytokine concentration (primary human T-cells; [3]) was 198.06 pg/mL, the IL-5 cytokine concentration (primary human T-cells; [3]) was 275.55 pg/mL and the IL-6 cytokine concentration (primary human T-cells; [3]) was 85.95 pg/mL. It also gave an IL-9 cytokine concentration (primary human T-cells; [3]) of 131.69 pg/mL, an IL-10 cytokine concentration (primary human T-cells; [3]) of 107.07 pg/mL and an IL-12p70 cytokine concentration (primary human T-cells; [3]) of 223.67 pg/mL. The IL-13 cytokine concentration (primary human T-cells; [3]) was 77.6 pg/mL, the IL-17 cytokine concentration (primary human T-cells; [3]) was 295.13 pg/mL and the IL-22 cytokine concentration (primary human T-cells; [3]) was 2227.62 pg/mL. It also gave a TNF-α cytokine concentration (primary human T-cells; [3]) of 203.95 pg/mL, an IFN-γ cytokine concentration (primary human T-cells; [4]) of 2516.08 pg/mL and an IL-1 cytokine concentration (primary human T-cells; [4]) of 11244.1 pg/mL. For the same substance, the IL-2 cytokine concentration (primary human T-cells; [4]) was 12000 pg/mL, the IL-4 cytokine concentration (primary human T-cells; [4]) was 209.61 pg/mL and the IL-5 cytokine concentration (primary human T-cells; [4]) was 204.84 pg/mL. It also gave an IL-6 cytokine concentration (primary human T-cells; [4]) of 1868.8 pg/mL, an IL-9 cytokine concentration (primary human T-cells; [4]) of 159.86 pg/mL and an IL-10 cytokine concentration (primary human T-cells; [4]) of 3032.66 pg/mL. It also gave an IL-12p70 cytokine concentration (primary human T-cells; [4]) of 925.71 pg/mL, an IL-13 cytokine concentration (primary human T-cells; [4]) of 398.98 pg/mL and an IL-17 cytokine concentration (primary human T-cells; [4]) of 2443.34 pg/mL. It also gave an IL-22 cytokine concentration (primary human T-cells; [4]) of 24324.9 pg/mL, a TNF-α cytokine concentration (primary human T-cells; [4]) of 3600 pg/mL and an IL-1 cytokine concentration ([1]; HaCaT stimulated with IFN-γ) of 251.36 pg/mL. It also gave an IL-2 cytokine concentration ([1]; HaCaT stimulated with IFN-γ) of 95.81 pg/mL, an IL-4 cytokine concentration ([1]; HaCaT stimulated with IFN-γ) of 88.93 pg/mL and an IL-5 cytokine concentration ([1]; HaCaT stimulated with IFN-γ) of 156.74 pg/mL. For the same substance, the IL-6 cytokine concentration ([1]; HaCaT stimulated with IFN-γ) was 704.01 pg/mL, the IL-9 cytokine concentration ([1]; HaCaT stimulated with IFN-γ) was 96.1 pg/mL and the IL-10 cytokine concentration ([1]; HaCaT stimulated with IFN-γ) was 107.72 pg/mL. For the same substance, the IL-13 cytokine concentration ([1]; HaCaT stimulated with IFN-γ) was 57.99 pg/mL, the IL-17 cytokine concentration ([1]; HaCaT stimulated with IFN-γ) was 612.41 pg/mL and the TNF-α cytokine concentration ([1]; HaCaT stimulated with IFN-γ) was 101.29 pg/mL. It also gave an IL-12p70 cytokine concentration ([1]; HaCaT stimulated with IFN-γ) of 1872.11 pg/mL, an IL-22 cytokine concentration ([1]; HaCaT stimulated with IFN-γ) of 18014.5 pg/mL and an IFN-γ cytokine concentration ([1]; HaCaT stimulated with PBS) of 373.53 pg/mL. It also gave an IL-1 cytokine concentration ([1]; HaCaT stimulated with PBS) of 224.9 pg/mL, an IL-2 cytokine concentration ([1]; HaCaT stimulated with PBS) of 87.98 pg/mL and an IL-4 cytokine concentration ([1]; HaCaT stimulated with PBS) of 85.92 pg/mL. It also gave an IL-5 cytokine concentration ([1]; HaCaT stimulated with PBS) of 181.61 pg/mL, an IL-6 cytokine concentration ([1]; HaCaT stimulated with PBS) of 77.53 pg/mL and an IL-9 cytokine concentration ([1]; HaCaT stimulated with PBS) of 112.82 pg/mL. The IL-10 cytokine concentration ([1]; HaCaT stimulated with PBS) was 166.47 pg/mL, the IL-13 cytokine concentration ([1]; HaCaT stimulated with PBS) was 64.17 pg/mL and the IL-17 cytokine concentration ([1]; HaCaT stimulated with PBS) was 562.61 pg/mL. For the same substance, the TNF-α cytokine concentration ([1]; HaCaT stimulated with PBS) was 87.84 pg/mL, the IL-12p70 cytokine concentration ([1]; HaCaT stimulated with PBS) was 1881.61 pg/mL and the IL-22 cytokine concentration ([1]; HaCaT stimulated with PBS) was 18087.5 pg/mL. The IFN-γ cytokine concentration [1, 5] was 531 pg/mL, the IL-1 cytokine concentration [1, 5] was 118.79 pg/mL and the IL-2 cytokine concentration [1, 5] was 184.58 pg/mL. The IL-4 cytokine concentration [1, 5] was 78.12 pg/mL, the IL-5 cytokine concentration [1, 5] was 141.02 pg/mL and the IL-6 cytokine concentration [1, 5] was 131.98 pg/mL. For the same substance, the IL-9 cytokine concentration [1, 5] was 108.97 pg/mL, the IL-10 cytokine concentration [1, 5] was 48.13 pg/mL and the IL-13 cytokine concentration [1, 5] was 49.03 pg/mL. For the same substance, the IL-17 cytokine concentration [1, 5] was 449.68 pg/mL, the TNF-α cytokine concentration [1, 5] was 77.12 pg/mL and the IL-12p70 cytokine concentration [1, 5] was 0 pg/mL. For the same substance, the IL-22 cytokine concentration [1, 5] was 8956.12 pg/mL, the “secretion / expression of pro-inflammatory cytokines (supernatant)” value ([1]; activated human keratinocytes) was “decreased secretion” and the IL-1 cytokine concentration (primary murine T-cells; [6]) was 0 pg/mL. The IL-2 cytokine concentration (primary murine T-cells; [6]) was 0 pg/mL, the IL-4 cytokine concentration (primary murine T-cells; [6]) was 0 pg/mL and the IL-5 cytokine concentration (primary murine T-cells; [6]) was 0 pg/mL. It also gave an IL-6 cytokine concentration (primary murine T-cells; [6]) of 6.51 pg/mL, an IL-10 cytokine concentration (primary murine T-cells; [6]) of 0 pg/mL and an IL-13 cytokine concentration (primary murine T-cells; [6]) of 0 pg/mL. The IL-17 cytokine concentration (primary murine T-cells; [6]) was 10.81 pg/mL, the IL-21 cytokine concentration (primary murine T-cells; [6]) was 0 pg/mL and the IL-22 cytokine concentration (primary murine T-cells; [6]) was 0 pg/mL. For the same substance, the IL-27 cytokine concentration (primary murine T-cells; [6]) was 179.72 pg/mL, the TNF-α cytokine concentration (primary murine T-cells; [6]) was 0 pg/mL and the IFN-γ cytokine concentration (primary murine T-cells; [7]) was 0 pg/mL. For the same substance, the IL-1 cytokine concentration (primary murine T-cells; [7]) was 53.09 pg/mL, the IL-2 cytokine concentration (primary murine T-cells; [7]) was 0 pg/mL and the IL-4 cytokine concentration (primary murine T-cells; [7]) was 0 pg/mL. For the same substance, the IL-5 cytokine concentration (primary murine T-cells; [7]) was 0 pg/mL, the IL-6 cytokine concentration (primary murine T-cells; [7]) was 0 pg/mL and the IL-10 cytokine concentration (primary murine T-cells; [7]) was 110.76 pg/mL. The IL-13 cytokine concentration (primary murine T-cells; [7]) was 0 pg/mL, the IL-17 cytokine concentration (primary murine T-cells; [7]) was 0 pg/mL and the IL-21 cytokine concentration (primary murine T-cells; [7]) was 0 pg/mL. It also gave an IL-22 cytokine concentration (primary murine T-cells; [7]) of 0 pg/mL, an IL-27 cytokine concentration (primary murine T-cells; [7]) of 379.78 pg/mL and a TNF-α cytokine concentration (primary murine T-cells; [7]) of 0 pg/mL. The IL-1 cytokine concentration (primary murine T-cells; [8]) was 60.61 pg/mL, the IL-4 cytokine concentration (primary murine T-cells; [8]) was 0 pg/mL and the IL-5 cytokine concentration (primary murine T-cells; [8]) was 292.17 pg/mL. For the same substance, the IL-6 cytokine concentration (primary murine T-cells; [8]) was 239.47 pg/mL, the IL-10 cytokine concentration (primary murine T-cells; [8]) was 145.26 pg/mL and the IL-13 cytokine concentration (primary murine T-cells; [8]) was 3898.42 pg/mL. For the same substance, the IL-17 cytokine concentration (primary murine T-cells; [8]) was 459.99 pg/mL, the IL-21 cytokine concentration (primary murine T-cells; [8]) was 0 pg/mL and the IL-22 cytokine concentration (primary murine T-cells; [8]) was 526.42 pg/mL. For the same substance, the IL-27 cytokine concentration (primary murine T-cells; [8]) was 426.79 pg/mL, the TNF-α cytokine concentration (primary murine T-cells; [8]) was 535.51 pg/mL and the “IFN-γ* cytokine concentration” value (primary murine T-cells; [9]) was 0 pg/mL. The “IL-2* cytokine concentration” value (primary murine T-cells; [9]) was 1354.76 pg/mL.

Reference: patent US10954269B2, “Anti-inflammatory tripeptides” (Dr. August Wolff Gmbh & Co. KG Arzneimittel, priority 2013, dated 2021)
